{
  "source": "patent US12145944B2",
  "about": "“Imidazopyrimidines as EED inhibitors and the use thereof” (THE REGENTS OF THE UNIVERSITY OF MICHIGAN, priority 2019, dated 2024)",
  "data": [
    {"tested_on": "KARPAS422 human B cell lymphoma cell", "assay": "Cell proliferation, KARPAS422, 7 day treatment (WST-8)", "type": "cell-based", "details": "Homo sapiens, KARPAS-422, 168 h, anti-proliferative IC50, Karpas 422 cell line, 7 day treatment; read-out: Karpas Cell line", "procedure": "(§1) “N/A” stands for “not assessed”.\n(§2) Analysis of Cell Proliferation:\n(§3) To assess the effect of PRC2 inhibition on cell growth, cells were seeded in 96-well cell culture plates at a density of 2 000-3 000 cells/well in 200 µL of culture medium, and treated with serially diluted compounds for 7 days at 37° C. in an atmosphere of 5% CO2. Cell growth was evaluated by a […] WST-8 assay (Dojindo Molecular Technologies) using a Tecan Infinite M1000 multimode microplate reader (Tecan, Morrisville, NC). The WST-8 reagent was added to the plate, incubated for 1-4 h, and read at 450 nm. The readings were normalized to the DMSO-treated cells, and the IC50 was calculated by nonlinear regression analysis using GraphPad Prism 6 software", "units": {"IC50": "nM"}, "values": [
      {"smiles": "Fc1ccc2c(c1CNc1ncc(-c3ccccc3)c3c(C(F)(F)F)ncn13)CCO2", "note": "[Cpd. No. 143, N-((5-fluoro-2,3-dihydrobenzofuran-4-yl)methyl)-8-phenyl-1-(trifluoromethyl)imidazo[1,5-c]pyrimidin-5-amine]", "IC50": "> 100"},
      {"smiles": "O=C1c2ncn3c(NCc4c(F)ccc5c4CCO5)ncc(c23)-c2ccc(C(F)(F)F)nc2CN1CC1CCOCC1", "note": "[compound 46, 12-(((5-fluoro-2,3-dihydrobenzofuran-4-yl)methyl)amino)-4-((tetrahydro-2H-pyran-4-yl)methyl)-7-(trifluoromethyl)-4,5-dihydro-3H-2,4,6,11,12a-pentaazabenzo[4,5]cycloocta[1,2,3-cd]inden-3-one]", "IC50": 0.57},
      {"smiles": "COCCN1Cc2nc(C(F)(F)F)ccc2-c2cnc(NCc3c(F)ccc4c3CCO4)n3cnc(c23)C1=O", "note": "[compound 57, 12-(((5-fluoro-2,3-dihydrobenzofuran-4-yl)methyl)amino)-4-(2-methoxyethyl)-7-(trifluoromethyl)-4,5-dihydro-3H-2,4,6,11,12a-pentaazabenzo[4,5]cycloocta[1,2,3-cd]inden-3-one]", "IC50": 2.63},
      {"smiles": "Cn1ncc2c1CNC(=O)c1ncn3c(NCc4c(F)ccc5c4CCO5)ncc-2c13", "note": "[compound 53, 11-(((5-fluoro-2,3-dihydrobenzofuran-4-yl)methyl)amino)-6-methyl-5,6-dihydro-2,4,6,7,10,11a-hexaazacyclopenta[4,5]cycloocta[1,2,3-cd]inden-3(4H)-one]", "IC50": "> 100"},
      {"smiles": "O=C1c2ncn3c(NCc4c(F)ccc5c4CCO5)ncc(c23)-c2ccc(C(F)(F)F)cc2CN1C1CCOCC1", "note": "[compound 60, 12-(((5-fluoro-2,3-dihydrobenzofuran-4-yl)methyl)amino)-4-(tetrahydro-2H-pyran-4-yl)-7-(trifluoromethyl)-4,5-dihydro-3H-2,4,11,12a-tetraazabenzo[4,5]cycloocta[1,2,3-cd]inden-3-one]", "IC50": 1.18},
      {"smiles": "CC(F)(F)CN1Cc2nc(C(F)(F)F)ccc2-c2cnc(NCc3c(F)ccc4c3CCO4)n3cnc(c23)C1=O", "note": "[compound 77, 4-(2,2-difluoropropyl)-12-(((5-fluoro-2,3-dihydrobenzofuran-4-yl)methyl)amino)-7-(trifluoromethyl)-4,5-dihydro-3H-2,4,6,11,12a-pentaazabenzo[4,5]cycloocta[1,2,3-cd]inden-3-one]", "IC50": 22.5},
      {"smiles": "Cn1cc2c(n1)COC(=O)c1ncn3c(NCc4c(F)ccc5c4CCO5)ncc-2c13", "note": "[compound 54, 11-(((5-fluoro-2,3-dihydrobenzofuran-4-yl)methyl)amino)-7-methyl-5,7-dihydro-3H-4-oxa-2,6,7,10,11a-pentaazacyclopenta[4,5]cycloocta[1,2,3-cd]inden-3-one]", "IC50": "> 100"},
      {"smiles": "O=C1c2ncn3c(NCc4c(F)ccc5c4CCO5)ncc(c23)-c2ccc(C(F)(F)F)nc2CN1C1CCOCC1", "note": "[compound 51, 12-(((5-fluoro-2,3-dihydrobenzofuran-4-yl)methyl)amino)-4-(tetrahydro-2H-pyran-4-yl)-7-(trifluoromethyl)-4,5-dihydro-3H-2,4,6,11,12a-pentaazabenzo[4,5]cycloocta[1,2,3-cd]inden-3-one]", "IC50": 2.08},
      {"smiles": "O=C1c2ncn3c(NCc4c(F)ccc5c4CCO5)ncc(c23)-c2cnc(C(F)(F)F)cc2CN1CCF", "note": "[compound 72, 12-(((5-fluoro-2,3-dihydrobenzofuran-4-yl)methyl)amino)-4-(2-fluoroethyl)-7-(trifluoromethyl)-4,5-dihydro-3H-2,4,8,11,12a-pentaazabenzo[4,5]cycloocta[1,2,3-cd]inden-3-one]", "IC50": 3.86}
    ]},
    {"tested_on": "KARPAS422 human B cell lymphoma cell", "assay": "Cell proliferation, KARPAS422, 7 day treatment (WST-8)", "type": "cell-based", "details": "Homo sapiens, KARPAS-422, 168 h, read-out: Karpas Cell line (nM)", "procedure": "as §1, §2, §3", "units": {"IC50": "nM"}, "values": [
      {"smiles": "CS(=O)(=O)c1ccc(-c2cnc(NCc3c(F)ccc4c3CCO4)n3cnc(S(C)(=O)=O)c23)cn1", "note": "[compound 105, N-((5-fluoro-2,3-dihydrobenzofuran-4-yl)methyl)-1-(methylsulfonyl)-8-(6-(methylsulfonyl)pyridin-3-yl)imidazo[1,5-c]pyrimidin-5-amine]", "IC50": 10.8}
    ]}
  ]
}
